Common to all, as to test: NCI-60 cell line screen, 48 h
The test system of assay [1] is A549 NSCLC.
The test system of assay [2] is TK-10 renal.
Assay [3] deals with DU-145 prostate.
Assay [4] concerns PC-3 prostate.
Assay [5] deals with HL-60(TB) leukemia.
Assay [6] has as its system EKVX NSCLC.
The test system of assay [7] is NCI-H23 lung.
Assay [8] relates to HOP-92 NSCLC.
In assay [9] the test system is SK-MEL-5 melanoma.
The subject of assay [10] is SF-295 CNS.

The source of these data is PubChem BioAssay (NCI).

Several values for one entry are separate records, joined by “and”; a condition that tells them apart may be missing. Equal entries are not always repeated.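 These data come from cells grown in 96-well plates and exposed to compound for 48 hours at five concentrations. The concentration for 50% growth inhibition is given as GI50. At the TGI there is no net growth.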

On to `COc1cc(/C=C2\CC3C4CC=C5C[C@@H](N6CCCC6)CC[C@]5(C)C4CC[C@]3(C)[C@H]2OC(C)=O)ccc1OCCCn1ccnc1` (stereo not given in full), for which the GI50 in assay [1] is 2.79 µM; in assay [2], 0.479 µM; in assay [3], 0.17 µM; in assay [4], 0.958 µM; in [5], 0.393 µM; in assay [6] it was 1.28 µM. The GI50 in assay [7] was 4 µM; in assay [8] it was 6.09 µM; in [9] it was 0.373 µM; in assay [10], 1.21 µM. The TGI came to 10.3 µM in [1]; 1.48 µM in assay [2]; 1.49 µM in assay [3]; 8.41 µM in assay [4]; 1.31 µM in [5]; 9.12 µM in assay [6]. In addition, the TGI in assay [7] was found to be 7.96 µM; in assay [8], 17.7 µM; in assay [9] it was 0.79 µM; in [10] it was 3.46 µM.
For `O=c1oc2cc(O)ccc2cc1-c1nc2ccccc2o1`, the TGI in [1] was more than 100 µM; in assay [2], more than 100 µM; in [3], more than 100 µM; in assay [4], more than 100 µM; in assay [5], 70.6 µM; in assay [6], more than 100 µM. The TGI is more than 100 µM in assay [7], 78.3 µM in assay [8], 40.8 µM in assay [9] and more than 100 µM in assay [10].
Turning to `C=CC(=O)N1CCN(c2nc(OC[C@@H]3CCCN3C)nc3c(F)c(-c4nc(N)cc(C)c4C(F)(F)F)c(Cl)cc23)[C@@H](C)C1`, the GI50 was 3.36 µM in [1]; 2.01 µM in assay [2]; 2.65 µM in assay [3]; 2.91 µM in assay [4]; 2.91 µM in assay [5]; 1.98 µM in assay [6]. Further, the GI50 was 1.75 µM in assay [8], 1.74 µM in assay [9] and 4.74 µM in assay [10]. Besides, the TGI was 13.6 µM in assay [1]; 4.53 µM in [2]; 7.2 µM in assay [3]; 12 µM in assay [4]; more than 100 µM in [5]; 4.8 µM in assay [6]. Further, the TGI came to 1.34 µM in [7], 3.71 µM in [8], 3.33 µM in assay [9] and 16.9 µM in assay [10].
In the case of `CC(C)(C)c1ccc(OCCCCCCCN2CCNCC2)cc1`, the GI50 in [1] is 1.72 µM; in assay [2] it was 1.6 µM; in [3], 1.78 µM; in assay [4], 1.66 µM; in [5] it was 1.45 µM; in [6], 3.04 µM. The GI50 in [7] was 4.28 µM; in assay [8] it was 1.72 µM; in [9], 1.82 µM; in assay [10] it was 1.84 µM. Further, the TGI in assay [1] is 3.6 µM; in [2] it was 3.06 µM; in [3] it was 3.37 µM; in assay [4], 3.85 µM; in assay [5], 3.3 µM; in [6] it was 12.7 µM. Moreover, the TGI in assay [7] was determined as 17.6 µM; in assay [8], 6.11 µM; in assay [9] it was 3.4 µM; in assay [10], 3.78 µM.
In the case of `Cc1cc(N)c2cc(NC(=O)/C=C\c3ccccc3Cl)ccc2n1`, the GI50 in [1] is 1.71 µM; in [2], 2.11 µM; in assay [3] it was 1.45 µM; in [4], 1.46 µM; in [5], 1.67 µM; in assay [6], 1.53 µM. Besides, the GI50 was 1.73 µM in assay [7], 1.56 µM in assay [8], 1.46 µM in assay [9] and 1.31 µM in assay [10]. Besides, the TGI in assay [1] was found to be 3.25 µM; in assay [2], 3.69 µM; in [3], 2.87 µM; in assay [4], 2.84 µM; in assay [5], 3.31 µM; in assay [6], 3.1 µM. In addition, the TGI in assay [7] turned out to be 3.32 µM; in assay [8], 3.27 µM; in assay [9], 2.8 µM; in assay [10], 2.71 µM.
With `CCOC(=O)CCC(NC(=O)c1ccc(Oc2nc3cc(N)cc(N)c3nc2-c2ccccc2)cc1)C(=O)OCC` (stereo not given), the GI50 in assay [1] was more than 100 µM; in assay [2] it was more than 100 µM; in assay [3], 62.2 µM; in assay [4], 73.5 µM; in [5], 31.5 µM; in assay [6], 62 µM. For the same molecule, the GI50 in [7] is 15.5 µM; in [8], 30.1 µM; in assay [9] it was 18 µM; in assay [10] it was 40.6 µM. Further, the TGI in assay [1] is more than 100 µM; in assay [2], more than 100 µM; in assay [3], more than 100 µM; in [4], more than 100 µM; in [5] it was 95 µM; in assay [6], more than 100 µM. The TGI in assay [7] was 30.4 µM; in [8], more than 100 µM; in assay [9], 53.8 µM; in assay [10], more than 100 µM.
Regarding `CC(=O)OC1CCC2(C)C(=CCC3C2CCC2(C)C3CC3OC4(CCC(C)CN4)C(C)C32)C1` (stereo not given), the TGI in assay [1], in assay [2], in assay [3], in assay [4], in assay [5] and in [6] was more than 100 µM throughout. The TGI in assay [7], in assay [8], in [9] and in assay [10] was more than 100 µM each time.
In the case of `COc1cccc2c1C(=O)c1c(O)c3c(c(O)c1C2=O)C[C@@](O)(C(=O)CO)C[C@@H]3OC1CC2C(OCN2CN2COC3C(C)OC(O[C@H]4C[C@](O)(C(=O)CO)Cc5c(O)c6c(c(O)c54)C(=O)c4c(OC)cccc4C6=O)CC32)C(C)O1` (stereo not given in full), the GI50 is 0.0056 µM in assay [1]; 0.0205 µM in assay [2]; 0.00312 µM in [3]; 0.0107 µM in [4]; 0.000329 µM in [5]; 0.0393 µM in [6]. Also, the GI50 in assay [7] is 0.00477 µM; in [8], 0.00606 µM; in assay [9], 0.0143 µM; in assay [10] it was 0.0024 µM. Moreover, the TGI in assay [2] was 0.0752 µM; in assay [3] it was more than 1 µM; in [4] it was 0.0896 µM; in assay [6], more than 1 µM; in assay [7] it was 0.0316 µM; in [8], more than 0.293 µM. The TGI is 0.0492 µM in [9] and 0.0259 µM in assay [10].
Take `NC(=O)c1c(NC(=O)c2ccc(C(F)(F)F)cc2Cl)sc2c1CCC(=O)C2`: the GI50 was 2.69 µM in assay [1]; 0.423 µM in assay [2]; 3.83 µM in assay [3]; 0.164 µM in [4]; 0.273 µM in [5]; 1.62 µM in [6]. For the same molecule, the GI50 in assay [7] is 0.288 µM; in assay [8] it was 0.426 µM; in [9] it was 0.684 µM; in assay [10], 1.05 µM. The TGI was found to be 14.4 µM in assay [1]; 4.07 µM in [2]; 25 µM in assay [3]; 1.3 µM in [4]; 1.09 µM in assay [5]; 4.93 µM in assay [6]. Besides, the TGI in assay [7] was 1.68 µM; in assay [8], 2.88 µM; in assay [9], 2.08 µM; in assay [10], 4.5 µM.
With `CCN(CC)CCNc1ccc2nc(C)n3c4ccc(OC)cc4c(=O)c1c23`, the TGI worked out at 15 µM in assay [1]; 4.75 µM in assay [2]; 13.3 µM in assay [3]; 17.5 µM in assay [4]; 2.96 µM in assay [5]; 13.9 µM in assay [6]. Also, the TGI in assay [7] came to 18.3 µM; in assay [8], 20.7 µM; in assay [9], 19.1 µM; in [10], 7.82 µM.
For `CCOC(=O)c1c(C)n(Cc2ccc(Cl)cc2Cl)c2c1cc(O)c1[nH]c(Cc3ccccc3)nc12`, the GI50 in [1] was 2.86 µM; in [2], 7.07 µM; in assay [3], 3.07 µM; in assay [4], 2.11 µM; in [5], 2.27 µM; in assay [6], 9.49 µM. Also, the GI50 in assay [7] was 3.6 µM; in assay [8], 1.77 µM; in assay [9], 1.58 µM; in [10], 5.92 µM. For the same molecule, the TGI in assay [1] stood at 14 µM; in assay [2], 29 µM; in assay [3], 8.66 µM; in [4], 5.62 µM; in assay [5], 5.38 µM; in assay [6], 22.3 µM. In addition, the TGI in assay [7] was 10.6 µM; in assay [8], 4.16 µM; in [9] it was 3.25 µM; in assay [10] it was 26.2 µM.
Turning to `Cc1ccc(S(=O)(=O)NC(=O)Nc2ncn[nH]2)cc1`, the TGI in [1], in assay [2], in assay [3], in assay [4], in assay [5] and in assay [6] was more than 100 µM each time. Moreover, the TGI in [7], in assay [8], in assay [9] and in assay [10] was more than 100 µM each time.
For the molecule `CCc1n(Cc2ccc3ccccc3c2)cc[n+]1Cc1ccc2ccccc2c1`, the GI50 in assay [1] is 2.59 µM; in assay [2], 1.65 µM; in assay [3], 0.965 µM; in assay [4] it was 0.699 µM; in assay [5], 0.249 µM; in [6], 0.766 µM. The GI50 in [7] is 0.396 µM; in assay [8] it was 0.338 µM; in [9], 0.361 µM; in assay [10] it was 1.43 µM. The TGI in [1] amounted to 13.9 µM; in assay [2], 3.32 µM; in assay [3], 4.23 µM; in assay [4], 2.49 µM; in assay [5] it was 1.17 µM; in assay [6], 5.55 µM. Moreover, the TGI amounted to 2.02 µM in [7], 1.77 µM in [8], 1.28 µM in assay [9] and 4 µM in assay [10].
Take `CC12CC(Br)(Br)C(=O)C3C1CCCC32`: the TGI in assay [1] came to 36.5 µM; in assay [2], 12.5 µM; in [3], 25.1 µM; in [4], 25.6 µM; in [5] it was 9.33 µM; in assay [6] it was 19.1 µM. Further, the TGI in assay [7] turned out to be 16.3 µM; in [8] it was 6.19 µM; in assay [9], 17.5 µM; in [10], 29.5 µM.
On to `Cc1nc2ccccc2c(/C=C/c2ccc(F)cc2)c1C(=O)/C=C/c1ccccc1`, for which the GI50 in assay [1] was 2.88 µM; in [2], 4.05 µM; in assay [3], 2.34 µM; in assay [4] it was 2.53 µM; in [5] it was 2.55 µM; in assay [6], 4.38 µM. In addition, the GI50 in assay [7] is 1.99 µM; in assay [8], 2.02 µM; in [9], 2.11 µM; in assay [10], 4.72 µM. Further, the TGI was 10.3 µM in [1]; more than 100 µM in assay [2]; 6.21 µM in assay [3]; 8.81 µM in assay [4]; 6.93 µM in [5]; 43.5 µM in assay [6]. For the same molecule, the TGI in assay [7] is 5.43 µM; in [8], 31.5 µM; in assay [9], 5.12 µM; in assay [10], more than 100 µM.
As to `CC(C)C[C@H](NC(=O)[C@@H](N)Cc1cccc2ccccc12)B(O)O`, the GI50 in assay [1] is 0.926 µM; in assay [2], 0.439 µM; in assay [3], 0.0736 µM; in [4] it was 1.12 µM; in assay [5], 0.0789 µM and 0.0291 µM; in assay [6], 1.23 µM and 0.167 µM. Besides, the GI50 in assay [7] was 0.245 µM; in [8] it was 0.0288 µM; in [9], 0.176 µM; in [10], 0.313 µM. In addition, the TGI in assay [3] was 6.14 µM and 1.15 µM; in assay [5], 50 µM and > 100 µM; in assay [6], 5 µM and 3.13 µM.
Regarding `O=C1C2C3C=CC(C2C(=O)N1CN1CCOCC1)C1C2C(=O)N(CN4CCOCC4)C(=O)C2C31` (stereo not given), the TGI is more than 86.9 µM in assay [1]; more than 93.4 µM in [2]; more than 100 µM in assay [3]; more than 100 µM in assay [4]; more than 59.5 µM in [5]; more than 100 µM in [6]. Besides, the TGI in [7] was more than 66.8 µM; in [8], more than 93.8 µM; in assay [9], more than 58 µM; in assay [10] it was 98.9 µM.
